Laboratory results as given in patent US9155317B2, “Antifungal compositions” (DSM IP ASSETS B.V., priority 2011, dated 2015).

Experiments:
Penicillium italicum = experiment: Treatment of wounded, inoculated mandarins (mould growth); assay type: in vivo; details: 20° C.
Experimental: Ten fresh, organic mandarins were used per treatment. The peel of each mandarin was wounded once using a cork borer according to the method described by de Lapeyre de Bellaire and Dubois (1987). Subsequently, each wound was inoculated with 10 μl of a Penicillium italicum suspension containing 1×10^4 of spores/ml.
The treated mandarins were incubated in a closed box in the dark at 20° C. and assessed on mould growth after 16, 19, 22 and 26 days of incubation. […] The expected antifungal activity (E in %) of the combined antifungal composition comprising both active ingredients was calculated according to the Colby equation (Colby, 1967): E=X+Y−[(X·Y)/100] wherein X and Y are the observed antifungal activities (in %) of the individual active ingredients X and Y, respectively. If the observed antifungal activity (O in %) of the combination exceeds the expected antifungal activity (E in %) of the combination and the synergy factor O/E is thus >1.0, the combined application of the active ingredients leads to a synergistic antifungal effect.

Fusarium proliferatum [1] = experiment: In vitro antifungal activity, 96-well microtiter plates; assay type: cell-based; details: 5 days at 25° C.
Experimental: (§1) Subsequently, 100 μl of a Botrytis cinerea suspension prepared in PCB medium was used to inoculated each well with 2.5×10^3 spores/ml.
(§2) After incubation of the microtiter plates for 5 days at 25° C., the in vitro antifungal activity (%) of the individual active ingredients was assessed by calculating the reduction in mould growth observed in the presence of the active ingredient in comparison to the mould growth observed in the absence of the active ingredient. The expected antifungal activity (E in %) of the active ingredient combination was calculated according to the Colby equation (Colby, 1967): E=X+Y−[(X·Y)/100] wherein X and Y are the observed antifungal activities (in %) of the individual active ingredients X and Y, respectively. If the observed antifungal activity (O in %) of the combination exceeds the expected antifungal activity (E in %) of the combination and the resulting synergy factor O/E is thus >1.0, the combined application of the active ingredients leads to a synergistic antifungal effect.
The experiment was conducted as described in Example 11, except for the fact that the following compositions were tested:
Furthermore, Fusarium proliferatum was used for inoculation.

Fusarium proliferatum [2] = experiment: Treatment of wounded, inoculated bananas (mould growth); assay type: in vivo; details: 20° C.
Experimental: Four organic, unripe (green) bananas were used per treatment. The peel of each banana was wounded thrice using a cork borer according to the method described by de Lapeyre de Bellaire and Dubois (1987). Subsequently, each wound was inoculated with 15 μl of a Fusarium proliferatum suspension containing 1×10^5 of spores/ml. […] In addition, the antifungal compositions comprised 1.00% (w/w) methylhydroxyethylcellulose (MHEC), 0.40% (w/w) xanthan gum, 0.20% (w/w) anti-foaming agent, 0.30% (w/w) citric acid, 0.39% (w/w) lactic acid and 0.11% (w/w) potassium sorbate. […] The treated, unripe bananas were incubated in a closed box in the dark at 20° C. and a relative air humidity of 95%, which was obtained in the presence of a saturated Na2HPO4 aqueous solution. During the first 20 days of incubation, a ripe (yellow) banana was included in the closed box to elevate the ethylene gas level and thus induce ripening of the treated, unripe bananas.
The expected antifungal activity (E in %) of the combined antifungal composition comprising both active ingredients was calculated according to the Colby equation (Colby, 1967): E=X+Y−[(X·Y)/100] wherein X and Y are the observed antifungal activities (in %) of the individual active ingredients X and Y, respectively. If the observed antifungal activity (0 in %) of the combination exceeds the expected antifungal activity (E in %) of the combination and the synergy factor O/E is thus >1.0, the combined application of the active ingredients leads to a synergistic antifungal effect.
The degree of mould growth on the banana wounds was assessed according to the two methods described in Example 3.

Botrytis cinerea [3] = experiment: In vitro antifungal activity, 96-well microtiter plates; assay type: cell-based; details: 5 days at 25° C., alone or combined with natamycin
Experimental: The following compositions were tested:
as §1, §2

Botrytis cinerea [4] = experiment: Treatment of wounded, inoculated strawberries (mould growth); assay type: in vivo; details: 20° C., 250 ppm natamycin, 500 ppm pyrimethanil or both
Experimental: Twelve fresh, organic strawberries were used per treatment. Each strawberry was wounded with a 0.5 mm long cut and each wound was inoculated with 10 μl of a Botrytis cinerea suspension containing 1×10^5 of spores/ml. […] The antifungal composition also comprised 1.00% (w/w) methylhydroxyethylcellulose (MHEC), 0.40% (w/w) xanthan gum, 0.20% (w/w) anti-foaming agent, 0.30% (w/w) citric acid, 0.39% (w/w) lactic acid and 0.11% (w/w) potassium sorbate. A composition without natamycin or pyrimethanil was used as control.
The treated strawberries were incubated for three days in a closed box in the dark at 20° C. and assessed daily on mould growth. The antifungal activity (in %) of the individual active ingredients was determined by calculating the reduction in mould growth observed on the strawberries treated with the antifungal composition in comparison to the mould growth on the strawberries treated with the control composition. The expected antifungal activity (E in %) of the combined antifungal composition comprising both active ingredients was calculated according to the Colby equation (Colby, 1967): E=X+Y−[(X·Y)/100] wherein X and Y are the observed antifungal activities (in %) of the individual active ingredients X and Y, respectively. If the observed antifungal activity (O in %) of the combination exceeds the expected antifungal activity (E in %) of the combination and the synergy factor O/E is thus >1.0, the combined application of the active ingredients leads to a synergistic antifungal effect.

[5] = 250 ppm natamycin, 500 ppm cyprodinil or both, 21 days
[6] = 500 ppm natamycin, 1000 ppm cyprodinil or both, 27 days
[7] = natamycin 1.25 ppm, cyprodinil 10 ppm, pyrimethanil 17.5 ppm
[8] = natamycin […], cyprodinil 20 ppm, pyrimethanil 30 ppm
[9] = 500 ppm natamycin, 1000 ppm pyrimethanil or both, 22 days
[10] = 500 ppm natamycin, 1000 ppm pyrimethanil or both, 26 days
[11] = 250 ppm natamycin, 500 ppm pyrimethanil or both, 23 days
[12] = 250 ppm natamycin, 500 ppm pyrimethanil or both, 29 days

Q: `Cc1cc(C2CC2)nc(Nc2ccccc2)n1` [Cyprodinil, cyprodinil] was tested. Which “Observed antifungal activity O (%)” value (Penicillium italicum; 250 ppm natamycin, 500 ppm cyprodinil or both, 16 days) did it give?
A: Its value is 60%.

Q: What about the “Observed antifungal activity O (%)” value (Penicillium italicum; 250 ppm natamycin, 500 ppm cyprodinil or both, 19 days) of the same compound?
A: Its value is 38%.

Q: What about the “Observed antifungal activity O (%)” value (Penicillium italicum; 250 ppm natamycin, 500 ppm cyprodinil or both, 22 days) of the same compound?
A: Its value is 20%.

Q: And the “Observed antifungal activity O (%)” value (Penicillium italicum; 250 ppm natamycin, 500 ppm cyprodinil or both, 26 days)?
A: The value was 13%.

Q: And the “Observed antifungal activity O (%)” value (Fusarium proliferatum [1]; natamycin 1.25 ppm, cyprodinil 125 ppm or both)?
A: The value was 0%.

Q: And the “Observed antifungal activity O (%)” value (Fusarium proliferatum [2]; 50 ppm natamycin, 250 ppm cyprodinil or both, 23 days)?
A: Its value is 0%.

Q: And the “Observed antifungal activity O (%)” value (Fusarium proliferatum [2]; 50 ppm natamycin, 250 ppm cyprodinil or both, 29 days)?
A: Its value is 0%.

Q: And the “Observed antifungal activity O (%)” value (Fusarium proliferatum [2]; 50 ppm natamycin, 250 ppm cyprodinil or both, 32 days)?
A: Its value is 0%.

Q: And the “Observed antifungal activity O (%)” value (Fusarium proliferatum [2]; 50 ppm natamycin, 250 ppm cyprodinil or both, 36 days)?
A: The value was 0%.

Q: And the “Number of moulded wounds/total number of 12 wounds” value (Fusarium proliferatum [2]; 250 ppm natamycin, 500 ppm cyprodinil or both, 18 days)?
A: Its value is 12/12.

Q: And the “Number of moulded wounds/total number of 12 wounds” value (Fusarium proliferatum [2]; 250 ppm natamycin, 500 ppm cyprodinil or both, 18 days, listed as cyprodinil)?
A: The value was 12.

Q: What about the “Number of moulded wounds/total number of 12 wounds” value (Fusarium proliferatum [2]; [5]) of the same compound?
A: Its value is 12/12.

Q: What about the “Observed antifungal activity O (%)” value (Fusarium proliferatum [2]; [5]) of the same compound?
A: The value was 35%.

Q: What about the “Number of moulded wounds/total number of 12 wounds” value (Fusarium proliferatum [2]; 250 ppm natamycin, 500 ppm cyprodinil or both, 21 days, listed as cyprodinil) of the same compound?
A: Its value is 12.

Q: And the “Observed antifungal activity O (%)” value (Fusarium proliferatum [2]; 250 ppm natamycin, 500 ppm cyprodinil or both, 32 days)?
A: Its value is 3%.

Q: And the “Observed antifungal activity O (%)” value (Fusarium proliferatum [2]; 250 ppm natamycin, 500 ppm cyprodinil or both, 34 days)?
A: The value was 0%.

Q: And the “Number of moulded wounds/total number of 12 wounds” value (Fusarium proliferatum [2]; 500 ppm natamycin, 1000 ppm cyprodinil or both, 23 days)?
A: The value was 12/12.

Q: And the “Number of moulded wounds/total number of 12 wounds” value (Fusarium proliferatum [2]; 500 ppm natamycin, 1000 ppm cyprodinil or both, 23 days, listed as cyprodinil)?
A: Its value is 12.

Q: What about the “Number of moulded wounds/total number of 12 wounds” value (Fusarium proliferatum [2]; [6]) of the same compound?
A: Its value is 12/12.

Q: And the “Observed antifungal activity O (%)” value (Fusarium proliferatum [2]; [6])?
A: Its value is 18%.

Q: And the “Number of moulded wounds/total number of 12 wounds” value (Fusarium proliferatum [2]; 500 ppm natamycin, 1000 ppm cyprodinil or both, 27 days, listed as cyprodinil)?
A: Its value is 12.

Q: What about the “Observed antifungal activity O (%)” value (Fusarium proliferatum [2]; 500 ppm natamycin, 1000 ppm cyprodinil or both, 39 days) of the same compound?
A: Its value is 0%.

Q: What about the “Observed antifungal activity O (%)” value (Botrytis cinerea [3]; [7]) of the same compound?
A: Its value is 0%.

Q: What about the “Observed antifungal activity O (%)” value (Botrytis cinerea [3]; [8]) of the same compound?
A: Its value is 0%.

Q: For `C[C@@H]1C/C=C/C=C/C=C/C=C/[C@H](O[C@@H]2O[C@H](C)[C@@H](O)[C@H](N)[C@@H]2O)C[C@@H]2O[C@](O)(C[C@@H](O)C[C@H]3O[C@@H]3/C=C/C(=O)O1)C[C@H](O)[C@H]2C(=O)O` [Natamycin, natamycin], which “Observed antifungal activity O (%)” value (Penicillium italicum; [9]) is on record?
A: The value was 37%.

Q: And the “Observed antifungal activity O (%)” value (Penicillium italicum; [10])?
A: Its value is 30%.

Q: What about the “Observed antifungal activity O (%)” value (Botrytis cinerea [4]; 1 day) of the same compound?
A: The value was 25%.

Q: What about the “Observed antifungal activity O (%)” value (Botrytis cinerea [4]; 2 days) of the same compound?
A: Its value is 31%.

Q: What about the “Observed antifungal activity O (%)” value (Botrytis cinerea [4]; 3 days) of the same compound?
A: The value was 24%.

Q: What about the “Observed antifungal activity O (%)” value (Fusarium proliferatum [2]; [11]) of the same compound?
A: The value was 19%.

Q: And the “Observed antifungal activity O (%)” value (Fusarium proliferatum [2]; [12])?
A: The value was 9%.

Q: How did the “Observed antifungal activity O (%)” value (Penicillium italicum; 250 ppm natamycin, 500 ppm pyrimethanil or both, 19 days) turn out when `Cc1cc(C)nc(Nc2ccccc2)n1` [Pyrimethanil, pyrimethanil] was run?
A: The value was 84%.

Q: And the “Observed antifungal activity O (%)” value (Penicillium italicum; 250 ppm natamycin, 500 ppm pyrimethanil or both, 22 days)?
A: The value was 74%.

Q: What about the “Observed antifungal activity O (%)” value (Penicillium italicum; 250 ppm natamycin, 500 ppm pyrimethanil or both, 26 days) of the same compound?
A: Its value is 65%.

Q: What about the “Observed antifungal activity O (%)” value (Penicillium italicum; [9]) of the same compound?
A: The value was 82%.

Q: And the “Observed antifungal activity O (%)” value (Penicillium italicum; [10])?
A: Its value is 79%.

Q: And the “Observed antifungal activity O (%)” value (Botrytis cinerea [4]; 1 day)?
A: The value was 0%.

Q: What about the “Observed antifungal activity O (%)” value (Botrytis cinerea [4]; 2 days) of the same compound?
A: The value was 0%.

Q: And the “Observed antifungal activity O (%)” value (Botrytis cinerea [4]; 3 days)?
A: The value was 0%.

Q: And the “Observed antifungal activity O (%)” value (Fusarium proliferatum [1]; natamycin 2.5 ppm, pyrimethanil 275 ppm or both)?
A: The value was 0%.

Q: What about the “Observed antifungal activity O (%)” value (Fusarium proliferatum [2]; [11]) of the same compound?
A: The value was 0%.

Q: And the “Observed antifungal activity O (%)” value (Fusarium proliferatum [2]; [12])?
A: Its value is 0%.

Q: And the “Observed antifungal activity O (%)” value (Fusarium proliferatum [2]; 250 ppm natamycin, 500 ppm pyrimethanil or both, 32 days)?
A: The value was 0%.

Q: And the “Observed antifungal activity O (%)” value (Fusarium proliferatum [2]; 250 ppm natamycin, 500 ppm pyrimethanil or both, 34 days)?
A: Its value is 0%.

Q: And the “Observed antifungal activity O (%)” value (Botrytis cinerea [3]; [7])?
A: The value was 50%.

Q: And the “Observed antifungal activity O (%)” value (Botrytis cinerea [3]; [8])?
A: Its value is 50%.
